Measured values taken from patent US20170001990A1 (Genentech, Inc., priority 2014, published 2017).

Target: Human recombinant carboxy-terminal his-tagged LDHA (amino acids 2-332) (Homo sapiens, UniProt P00338)
Assay: LDHA enzyme inhibition assay (NADH fluorescence)
Details: LDHA IC50 (μM), 1 nM LDHA, NADH and pyruvate, stereochemistry of tested sample given

Structure (SMILES) | IC50 [µM]
O=C1CC(c2ccsc2)(c2cccc(Cc3ccccc3)n2)NC(=O)C1Sc1ccccc1Cl (single isomer, unassigned) [Example 204, 6-(6-benzyl-2-pyridyl)-3-(2-chlorophenyl)sulfanyl-6-(3-thienyl)piperidine-2,4-dione] | 0.007
O=C1CC(c2ccsc2)(c2cccc(OC3CCCCC3)n2)NC(=O)C1Sc1ccccc1Cl (single isomer, unassigned) [Example 205, 3-(2-chlorophenyl)sulfanyl-6-[6-(cyclohexoxy)-2-pyridyl]-6-(3-thienyl) piperidine-2,4-dione] | 0.058
CC1(COc2cccc(C3(c4ccsc4)CC(=O)C(Sc4ccccc4Cl)C(=O)N3)n2)CC1 (single isomer, unassigned) [Example 206, 3-(2-chlorophenyl)sulfanyl-6-[6-[(1-methylcyclopropyl)methoxy]-2-pyridyl]-6-(3-thienyl)piperidine-2,4-dione] | 0.027
CC(Oc1cccc(C2(c3ccsc3)CC(=O)C(Sc3ccccc3Cl)C(=O)N2)n1)C1CC1 (single isomer, unassigned) [Example 207, 3-(2-chlorophenyl)sulfanyl-6-[6-(1-cyclopropylethoxy)-2-pyridyl]-6-(3-thienyl) piperidine-2,4-dione] | 0.02
O=C1CC(c2ccsc2)(c2cccc(OCCC3CCCCC3)n2)NC(=O)C1Sc1ccccc1Cl (single isomer, unassigned) [Example 208, 3-(2-chlorophenyl)sulfanyl-6-[6-(2-cyclohexylethoxy)-2-pyridyl]-6-(3-thienyl) piperidine-2,4-dione] | 0.149
O=C1CC(c2ccsc2)(c2cccc(OCC3CCOCC3)n2)NC(=O)C1Sc1ccccc1Cl (single isomer, unassigned) [Example 209, 3-(2-chlorophenyl)sulfanyl-6-[6-(tetrahydropyran-4-ylmethoxy)-2-pyridyl]-6-(3-thienyl)piperidine-2,4-dione] | 0.006
O=C1CCC(COc2cccc(C3(c4ccsc4)CC(=O)C(Sc4ccccc4Cl)C(=O)N3)n2)O1 (single isomer, unassigned) [Example 212, 3-(2-chlorophenyl)sulfanyl-6-[6-[(5-oxotetrahydrofuran-2-yl)methoxy]-2-pyridyl]-6-(3-thienyl)piperidine-2,4-dione] | 0.03
O=C1CC(c2ccsc2)(c2cccc(Sc3ccc(F)cc3)n2)NC(=O)C1Sc1ccccc1Cl (single isomer, unassigned) [Example 213, 3-(2-chlorophenyl)sulfanyl-6-[6-(4-fluorophenyl)sulfanyl-2-pyridyl]-6-(3-thienyl)piperidine-2,4-dione] | 0.034
CC(Oc1cccc(C2(c3ccsc3)CC(=O)C(Sc3ccccc3Cl)C(=O)N2)n1)C1CC1 (single isomer, unassigned) [Example 214, 3-(2-chlorophenyl)sulfanyl-6-[6-(1-cyclopropyl-ethoxy)-2-pyridyl]-6-(3-thienyl)piperidine-2,4-dione] | 0.017
O=C1CC(c2ccsc2)(c2cccc(OCC3CC(F)(F)C3)n2)NC(=O)C1Sc1ccccc1Cl (single isomer, unassigned) [Example 215, 3-(2-chlorophenyl)sulfanyl-6-[6-[(3,3-difluorocyclo-butyl)methoxy]-2-pyridyl]-6-(3-thienyl)piperidine-2,4-dione] | 0.014
O=C1CC(c2ccsc2)(c2cccc(Oc3cc(F)cc(CO)c3)n2)NC(=O)C1Sc1ccccc1Cl (single isomer, unassigned) [Example 216, 3-(2-chlorophenyl)sulfanyl-6-[6-[3-fluoro-5-(hydroxy-methyl)phenoxy]-2-pyridyl]-6-(3-thienyl)piperidine-2,4-dione] | 0.002
O=C1CC(c2ccsc2)(c2cccc(OCC3CCCO3)n2)NC(=O)C1Sc1ccccc1Cl (single isomer, unassigned) [Example 221, 3-(2-chlorophenyl)sulfanyl-6-[6-(tetrahydrofuran-2-ylmethoxy)-2-pyridyl]-6-(3-thienyl)piperidine-2,4-dione] | 0.32
O=C1CC(c2ccsc2)(c2cccc(OCC(F)F)n2)NC(=O)C1Sc1ccccc1Cl (single isomer, unassigned) [Example 223, 3-(2-chlorophenyl)sulfanyl-6-[6-(2,2-difluoroethoxy)-2-pyridyl]-6-(3-thienyl) piperidine-2,4-dione] | 0.057
O=C1CC(c2ccsc2)(c2cccc(OCC3COC3)n2)NC(=O)C1Sc1ccccc1Cl (single isomer, unassigned) [Example 225, 3-(2-chlorophenyl)sulfanyl-6-[6-(oxetan-3-ylmethoxy)-2-pyridyl]-6-(3-thienyl) piperidine-2,4-dione] | 0.103
CCOCCOc1cccc(C2(c3ccsc3)CC(=O)C(Sc3ccccc3Cl)C(=O)N2)n1 (single isomer, unassigned) [Example 227, 3-(2-chlorophenyl)sulfanyl-6-[6-(2-ethoxyethoxy)-2-pyridyl]-6-(3-thienyl) piperidine-2,4-dione] | 0.015
COCCCOc1cccc(C2(c3ccsc3)CC(=O)C(Sc3ccccc3Cl)C(=O)N2)n1 (single isomer, unassigned) [Example 228, 3-(2-chlorophenyl)sulfanyl-6-[6-(3-methoxypropoxy)-2-pyridyl]-6-(3-thienyl) piperidine-2,4-dione] | 0.419
O=C1CC(c2ccsc2)(c2cccc(OCC3CCC(CO)CC3)n2)NC(=O)C1Sc1ccccc1Cl (single isomer, unassigned) [Example 233, 3-((2-chlorophenyl)thio)-6-(6-((4-(hydroxymethyl)cyclohexyl)methoxy)pyridin-2-yl)-6-(thiophen-3-yl)piperidine-2,4-dione] | 0.017
O=C1CC(c2ccsc2)(c2cccc(Oc3cc(F)cc(CO)c3)n2)NC(=O)C1Sc1ccccc1Cl (single isomer, unassigned) [Example 234, 3-(2-chlorophenyl)sulfanyl-6-[6-[3-fluoro-5-(hydroxy-methyl)phenoxy]-2-pyridyl]-6-(3-thienyl)piperidine-2,4-dione] | 0.004
O=C1CC(c2ccsc2)(c2cccc(OCC3CCCO3)n2)NC(=O)C1Sc1ccccc1Cl (single isomer, unassigned) [Example 235, 3-(2-chlorophenyl)sulfanyl-6-[6-(tetrahydrofuran-2-ylmethoxy)-2-pyridyl]-6-(3-thienyl)piperidine-2,4-dione] | 0.021
O=C1CC(c2ccsc2)(c2cccc(OCC3COC3)n2)NC(=O)C1Sc1ccccc1Cl (single isomer, unassigned) [Example 236, 3-(2-chlorophenyl)sulfanyl-6-[6-(oxetan-3-ylmethoxy)-2-pyridyl]-6-(3-thienyl) piperidine-2,4-dione] | 0.025

More lines, now with the values ahead:

IC50 [µM] | Structure (SMILES)
0.094 | COCCCOc1cccc(C2(c3ccsc3)CC(=O)C(Sc3ccccc3Cl)C(=O)N2)n1 (single isomer, unassigned) [Example 237, 3-(2-chlorophenyl)sulfanyl-6-[6-(3-methoxypropoxy)-2-pyridyl]-6-(3-thienyl) piperidine-2,4-dione]
0.018 | O=C1CC(c2ccsc2)(c2cccc(OCC3CCCO3)n2)NC(=O)C1Sc1ccccc1Cl (single isomer, unassigned) [Example 238, 3-(2-chlorophenyl)sulfanyl-6-[6-(tetrahydrofuran-2-ylmethoxy)-2-pyridyl]-6-(3-thienyl)piperidine-2,4-dione]
0.015 | O=C1CC(c2ccsc2)(c2cccc(OCC3CCCO3)n2)NC(=O)C1Sc1ccccc1Cl (single isomer, unassigned) [Example 239, 3-(2-chlorophenyl)sulfanyl-6-[6-(tetrahydrofuran-2-ylmethoxy)-2-pyridyl]-6-(3-thienyl)piperidine-2,4-dione]
0.003 | CC(CC1CC1)Oc1cccc(C2(c3ccsc3)CC(=O)C(Sc3ccccc3Cl)C(=O)N2)n1 (single isomer, unassigned) [Example 241, 3-(2-chlorophenyl)sulfanyl-6-[6-(2-cyclopropyl-1-methyl-ethoxy)-2-pyridyl]-6-(3-thienyl)piperidine-2,4-dione]
0.001 | O=C1CC(c2ccsc2)(c2cccc(OCC3CCCC3)n2)NC(=O)C1Sc1ccccc1Cl (single isomer, unassigned) [Example 243, 3-(2-chlorophenyl)sulfanyl-6-[6-(cyclopentylmethoxy)-2-pyridyl]-6-(3-thienyl) piperidine-2,4-dione]
0.023 | O=C1CC(c2ccsc2)(c2cccc(OCC3CCC(CO)CC3)n2)NC(=O)C1Sc1ccccc1Cl (single isomer, unassigned) [Example 244, 3-(2-chlorophenyl)sulfanyl-6-[6-[[4-(hydroxymethyl)cyclohexyl]methoxy]-2-pyridyl]-6-(3-thienyl) piperidine-2,4-dione]
0.018 | O=C1CC(c2ccsc2)(c2cccc(OCC(F)F)n2)NC(=O)C1Sc1ccccc1Cl (single isomer, unassigned) [Example 245, 3-(2-chlorophenyl)sulfanyl-6-[6-(2,2-difluoroethoxy)-2-pyridyl]-6-(3-thienyl) piperidine-2,4-dione]
0.019 | CC(CC1CC1)Oc1cccc(C2(c3ccsc3)CC(=O)C(Sc3ccccc3Cl)C(=O)N2)n1 (single isomer, unassigned) [Example 251, 3-(2-chlorophenyl)sulfanyl-6-[6-(2-cyclopropyl-1-methyl-ethoxy)-2-pyridyl]-6-(3-thienyl) piperidine-2,4-dione]
0.079 | O=C1CC(c2ccsc2)(c2cccc(OCC3CCCC3)n2)NC(=O)C1Sc1ccccc1Cl (single isomer, unassigned) [Example 252, 3-(2-chlorophenyl)sulfanyl-6-[6-(cyclopentyl-methoxy)-2-pyridyl]-6-(3-thienyl)pipereidine-2,4-dione]
0.047 | O=C1CC(c2ccsc2)(c2cccc(OCC(F)F)n2)NC(=O)C1Sc1ccccc1Cl (single isomer, unassigned) [Example 254, 3-(2-chlorophenyl)sulfanyl-6-[6-(2,2-difluoroethoxy)-2-pyridyl]-6-(3-thienyl) piperidine-2,4-dione]
